Test results reported in the NIST ThermoML archive (doi:10.1021/acs.jced.8b00812).
Numbers after ± are expanded uncertainties.

Conditions: Liquid; for viscosity: Capillary tube (Ostwald / Ubbelohde) method; for mass density: Vibrating tube method

CCCCCCCCCO [nonan-1-ol]
Conditions	mass density [kg/m3]	viscosity [mPa·s]
298.15 K, 1990 kPa	825.5 ± 0.9	9.285 ± 0.11
298.15 K, 3990 kPa	826.7 ± 0.9	9.511 ± 0.12
298.15 K, 6000 kPa	828 ± 0.9	9.746 ± 0.12
298.15 K, 8010 kPa	829.2 ± 0.9	9.958 ± 0.12
298.15 K, 10010 kPa	830.5 ± 0.9	10.17 ± 0.12
298.15 K, 13000 kPa	832.2 ± 0.9	10.51 ± 0.13
298.15 K, 16000 kPa	833.9 ± 0.9	10.85 ± 0.13
298.15 K, 19010 kPa	835.5 ± 0.9	11.2 ± 0.14
298.15 K, 21990 kPa	837.1 ± 1	11.56 ± 0.14
298.15 K, 25000 kPa	838.7 ± 1	11.93 ± 0.14
298.15 K, 28020 kPa	840.2 ± 1	12.28 ± 0.15
298.15 K, 30020 kPa	841.1 ± 1	12.51 ± 0.15
303.14 K, 27980 kPa	836.9 ± 1	11.13 ± 0.14
303.15 K, 2010 kPa	822 ± 0.9	8.424 ± 0.1
303.15 K, 4010 kPa	823.2 ± 0.9	8.633 ± 0.11
303.15 K, 6020 kPa	824.5 ± 0.9	8.843 ± 0.11
303.15 K, 8030 kPa	825.7 ± 0.9	9.053 ± 0.11
303.15 K, 9990 kPa	826.9 ± 0.9	9.257 ± 0.11
303.15 K, 12980 kPa	828.7 ± 0.9	9.568 ± 0.12
303.15 K, 15970 kPa	830.4 ± 0.9	9.88 ± 0.12
303.15 K, 19020 kPa	832.1 ± 0.9	10.2 ± 0.12
303.15 K, 22010 kPa	833.8 ± 1	10.51 ± 0.13
303.15 K, 25000 kPa	835.4 ± 1	10.82 ± 0.13
303.15 K, 30000 kPa	837.9 ± 1	11.34 ± 0.14
313.15 K, 2000 kPa	814.9 ± 0.9	6.381 ± 0.079
313.15 K, 3970 kPa	816.3 ± 0.9	6.536 ± 0.081
313.15 K, 6020 kPa	817.6 ± 0.9	6.699 ± 0.082
313.15 K, 7990 kPa	818.9 ± 0.9	6.854 ± 0.084
313.15 K, 10020 kPa	820.2 ± 0.9	7.015 ± 0.086
313.15 K, 13000 kPa	822 ± 0.9	7.25 ± 0.089
313.15 K, 16000 kPa	823.8 ± 0.9	7.487 ± 0.092
313.15 K, 18980 kPa	825.6 ± 0.9	7.723 ± 0.095
313.15 K, 22000 kPa	827.3 ± 1	7.961 ± 0.097
313.15 K, 25000 kPa	829 ± 1	8.198 ± 0.1
313.15 K, 28010 kPa	830.6 ± 1	8.436 ± 0.1
313.15 K, 29990 kPa	831.7 ± 1	8.592 ± 0.11
323.15 K, 2010 kPa	808.3 ± 0.9	4.745 ± 0.059
323.15 K, 4020 kPa	809.7 ± 0.9	4.859 ± 0.06
323.15 K, 6020 kPa	811 ± 0.9	4.976 ± 0.062
323.15 K, 8010 kPa	812.3 ± 0.9	5.09 ± 0.063
323.15 K, 10010 kPa	813.7 ± 0.9	5.202 ± 0.065
323.15 K, 13010 kPa	815.7 ± 0.9	5.376 ± 0.067
323.15 K, 16010 kPa	817.5 ± 0.9	5.539 ± 0.069
323.15 K, 19000 kPa	819.3 ± 0.9	5.716 ± 0.071
323.15 K, 22010 kPa	821.1 ± 0.9	5.892 ± 0.073
323.15 K, 25000 kPa	822.9 ± 1	6.07 ± 0.075
323.15 K, 28000 kPa	824.6 ± 1	6.247 ± 0.077
323.15 K, 30000 kPa	825.7 ± 1	6.373 ± 0.079

CCCCCO [pentan-1-ol]
Conditions	mass density [kg/m3]	viscosity [mPa·s]
298.15 K, 2000 kPa	813 ± 0.8	3.59 ± 0.038
298.15 K, 4000 kPa	814.4 ± 0.8	3.66 ± 0.038
298.15 K, 6000 kPa	815.8 ± 0.8	3.732 ± 0.039
298.15 K, 8010 kPa	817.1 ± 0.8	3.796 ± 0.04
298.15 K, 10000 kPa	818.5 ± 0.8	3.869 ± 0.041
298.15 K, 13000 kPa	820.4 ± 0.8	3.975 ± 0.042
298.15 K, 16000 kPa	822.3 ± 0.9	4.081 ± 0.043
298.15 K, 19010 kPa	824.1 ± 0.9	4.192 ± 0.044
298.15 K, 22000 kPa	825.9 ± 0.9	4.299 ± 0.045
298.15 K, 25000 kPa	827.6 ± 0.9	4.409 ± 0.046
298.15 K, 27990 kPa	829.4 ± 0.9	4.507 ± 0.047
298.15 K, 29980 kPa	830.4 ± 0.9	4.577 ± 0.048
303.15 K, 19000 kPa	820.3 ± 0.9	3.757 ± 0.04
303.15 K, 27980 kPa	825.6 ± 0.9	4.041 ± 0.042
303.16 K, 1980 kPa	808.8 ± 0.8	3.219 ± 0.034
303.16 K, 3980 kPa	810.2 ± 0.8	3.282 ± 0.035
303.16 K, 6010 kPa	811.7 ± 0.8	3.346 ± 0.035
303.16 K, 8020 kPa	813 ± 0.8	3.41 ± 0.036
303.16 K, 10030 kPa	814.4 ± 0.8	3.474 ± 0.036
303.16 K, 12990 kPa	816.4 ± 0.8	3.567 ± 0.037
303.16 K, 15980 kPa	818.4 ± 0.8	3.662 ± 0.038
303.16 K, 22010 kPa	822.1 ± 0.9	3.852 ± 0.041
303.16 K, 25000 kPa	823.9 ± 0.9	3.947 ± 0.042
303.16 K, 29990 kPa	826.7 ± 0.9	4.105 ± 0.043
313.15 K, 1990 kPa	800.6 ± 0.8	2.438 ± 0.026
313.15 K, 4000 kPa	802.2 ± 0.8	2.486 ± 0.026
313.15 K, 5980 kPa	803.7 ± 0.8	2.533 ± 0.027
313.15 K, 7980 kPa	805.1 ± 0.8	2.581 ± 0.027
313.15 K, 10020 kPa	806.6 ± 0.8	2.629 ± 0.028
313.15 K, 13010 kPa	808.7 ± 0.8	2.701 ± 0.029
313.15 K, 19020 kPa	812.8 ± 0.8	2.845 ± 0.03
313.15 K, 21980 kPa	814.7 ± 0.9	2.916 ± 0.031
313.15 K, 30020 kPa	819.6 ± 0.9	3.109 ± 0.033
313.16 K, 15980 kPa	810.8 ± 0.8	2.772 ± 0.029
313.16 K, 24990 kPa	816.6 ± 0.9	2.988 ± 0.032
313.16 K, 28000 kPa	818.4 ± 0.9	3.06 ± 0.032
323.15 K, 2000 kPa	793.5 ± 0.8	1.833 ± 0.019
323.15 K, 4000 kPa	795 ± 0.8	1.866 ± 0.02
323.15 K, 6000 kPa	796.7 ± 0.8	1.901 ± 0.02
323.15 K, 8000 kPa	798.2 ± 0.8	1.935 ± 0.021
323.15 K, 10000 kPa	799.6 ± 0.8	1.969 ± 0.021
323.15 K, 13000 kPa	801.9 ± 0.8	2.022 ± 0.022
323.15 K, 16000 kPa	804 ± 0.8	2.078 ± 0.022
323.15 K, 19000 kPa	806.1 ± 0.8	2.133 ± 0.023
323.15 K, 22000 kPa	808.2 ± 0.9	2.189 ± 0.023
323.15 K, 25000 kPa	810.2 ± 0.9	2.244 ± 0.024
323.15 K, 27990 kPa	812.1 ± 0.9	2.299 ± 0.024
323.15 K, 29990 kPa	813.4 ± 0.9	2.335 ± 0.025
